Assay results taken from patent publication US20250034150A1, “BTK INHIBITORS” (BIOGEN MA INC., priority 2021, published 2025).
Where a name gives a salt, the structure may show the parent alone.

Tests used:
[1] = tested on: CD69 expression on CD19+ B cells in human whole blood; experiment: In Vitro whole blood CD69 Assay; assay type: cell-based; conditions: B-cell; human heparinized whole blood, anti-human IgD stimulation overnight, CD19+ B cells, flow cytometry; read-out: In Vitro HWB CD69 Assay IC50 Score
Experimental: Human heparinized venous blood from health donors was aliquoted into 96-well plate and “spiked” with serial dilutions of formula I compounds in DMSO or with DMSO without drug. The final concentration of DMSO in all wells was 0.1%. The plate was incubated at 37° C. for 30 min. Drug-containing samples were stimulated with 0.1 μg/mL mouse anti-human IgD-dextran (1A62) or 20 μg/mL polyclonal rabbit F(ab′)2 anti-human IgD. Phosphate-buffered saline (PBS) was added to the negative control unstimulated sample and the plates were incubated overnight (18 to 22 hours) at 37° C. Cells were stained with fluorochrome-conjugated anti-CD19 and anti-CD69 antibodies. Lyse/fix solution was used to remove red blood cells by hypotonic lysis and to fix the remaining cells, which were then analyzed by flow cytometry. CD19+ B cells were gated and analyzed for CD69 expression.

[2] = target: T1, BTK (Homo sapiens, UniProt Q06187); experiment: In Vitro BTK Kinase Assay: Btk-PolyGAT-LS Assay; assay type: biochemical; conditions: active BTK enzyme 0.25 nM, polyGAT 100 nM, 30 minutes, TRF readout; read-out: In Vitro BTK Kinase Assay IC50 Score
T1 construct: purchased Upstate 14-552
T1 sequence (Q06187 whole entry): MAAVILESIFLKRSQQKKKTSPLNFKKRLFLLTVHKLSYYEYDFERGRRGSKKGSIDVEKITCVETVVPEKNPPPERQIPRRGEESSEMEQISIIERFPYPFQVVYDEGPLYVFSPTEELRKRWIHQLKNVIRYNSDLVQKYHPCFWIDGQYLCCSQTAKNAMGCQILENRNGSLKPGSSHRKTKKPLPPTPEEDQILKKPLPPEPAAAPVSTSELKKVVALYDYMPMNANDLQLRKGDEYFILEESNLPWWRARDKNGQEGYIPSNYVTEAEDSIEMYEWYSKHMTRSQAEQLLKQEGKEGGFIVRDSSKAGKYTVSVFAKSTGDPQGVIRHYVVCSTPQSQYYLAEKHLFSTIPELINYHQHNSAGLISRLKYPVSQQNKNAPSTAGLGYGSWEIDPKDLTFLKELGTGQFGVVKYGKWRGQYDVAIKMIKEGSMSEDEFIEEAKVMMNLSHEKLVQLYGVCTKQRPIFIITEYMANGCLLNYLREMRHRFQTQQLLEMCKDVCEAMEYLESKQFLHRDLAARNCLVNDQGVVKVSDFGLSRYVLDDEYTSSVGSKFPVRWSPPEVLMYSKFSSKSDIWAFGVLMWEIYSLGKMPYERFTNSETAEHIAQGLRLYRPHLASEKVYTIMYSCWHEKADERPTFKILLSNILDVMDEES
Experimental: The purpose of the BTK in vitro assay is to determine compound potency against BTK through the measurement of IC50. Compound inhibition is measured after monitoring the amount of phosphorylation of a fluorescein-labeled polyGAT peptide (Invitrogen PV3611) in the presence of active BTK enzyme (Upstate 14-552), ATP, and inhibitor. The BTK kinase reaction was done in a black 96 well plate (costar 3694). For a typical assay, a 24 μL aliquot of a ATP/peptide master mix (final concentration; ATP […], polyGAT 100 nM) in kinase buffer (10 mM Tris-HCl pH 7.5, 10 mM MgCl2, 200 μM […], 5 mM DTT, 0.01% Triton X-100, and 0.2 mg/ml casein) is added to each well. Next, […] of a 4-fold, 40× compound titration in 100% DMSO solvent is added, followed by adding 15 μL of BTK enzyme mix in 1× kinase buffer (with a final concentration of 0.25 nM). The assay is incubated for 30 minutes before being stopped with 28 μL of a 50 mM EDTA solution. Aliquots (5 uL) of the kinase reaction are transferred to a low volume white 384 well plate (Coming 3674), and 5 μL of a 2× detection buffer (Invitrogen PV3574, with 4 nM Tb—PY20 antibody, Invitrogen PV3552) is added. The plate is covered and incubated for 45 minutes at room temperature. Time resolved fluorescence (TRF) on Molecular Devices M5 (332 nm excitation; 488 nm emission; 518 nm fluorescein emission) is measured. IC50 values are calculated using a four parameter fit with 100% enzyme activity determined from the DMSO control and 0% activity from the EDTA control.

SMILES | IC50 [1] [nM] | IC50 [2] [nM]
Cn1cc(-c2cn3ncnc3c(N3CCC(CNC(=O)c4noc(C(C)(C)C)n4)CC3)n2)cn1 [Example 73, 5-(tert-butyl)-N-((1-(6-(1-methyl-1H-pyrazol-4-yl)-[1,2,4]triazolo[1,5-a]pyrazin-8-yl)piperidin-4-yl)methyl)-1,2,4-oxadiazole-3-carboxamide] | 1000 to 10000 | 1 to 10
COCCOc1cn2nccc2c(-c2ccc(CNC(=O)c3cn(C(C)(C)C)nn3)c(C)c2)n1 [Example 122, 1-(tert-butyl)-N-(4-(6-(2-methoxyethoxy)pyrazolo[1,5-a]pyrazin-4-yl)-2-methylbenzyl)-1H-1,2,3-triazole-4-carboxamide] | < 1000 | 1 to 10
Cn1cc(-c2cn3nccc3c(N3CC[C@@H](CNC(=O)c4noc(C(C)(C)C)n4)C(F)(F)C3)n2)cn1 (single isomer, unassigned) [Example 158] | < 1000 | < 1
Cn1cc(-c2cn3nccc3c(-c3ccc(CNC(=O)c4noc(C(C)(C)CF)n4)cc3)n2)cn1 [Example 22, 5-(1-fluoro-2-methylpropan-2-yl)-N-(4-(6-(1-methyl-1H-pyrazol-4-yl)pyrazolo[1,5-a]pyrazin-4-yl)benzyl)-1,2,4-oxadiazole-3-carboxamide] | < 1000 | < 1
Cn1cc(-c2cn3nccc3c(-c3ccc(CNC(=O)c4cnn(C(C)(C)C)n4)cc3F)n2)cn1 [Example 113, 2-(tert-butyl)-N-(3-fluoro-4-(6-(1-methyl-1H-pyrazol-4-yl)pyrazolo[1,5-a]pyrazin-4-yl)benzyl)-2H-1,2,3-triazole-4-carboxamide] | 1000 to 10000 | 1 to 10
CC(C)(C)c1nc(C(=O)NCc2ccc(-c3nc(N4CCOCC4)cn4nccc34)cc2)no1 [Example 23, 5-(tert-butyl)-N-(4-(6-morpholinopyrazolo[1,5-a]pyrazin-4-yl)benzyl)-1,2,4-oxadiazole-3-carboxamide] | 1000 to 10000 | 1000 to 10000
CC(C)N1CCN(CC2CCN(c3nc(-c4cnn(C)c4)cn4nccc34)CC2)C(=O)C1 [Example 173, 4-isopropyl-1-((1-(6-(1-methyl-1H-pyrazol-4-yl)pyrazolo[1,5-a]pyrazin-4-yl)piperidin-4-yl)methyl)piperazin-2-one] |  | 1000 to 10000
C[C@@H]1CN(c2nc(-c3cnn(C)c3)cn3nccc23)CC[C@@H]1CNC(=O)c1cn(C(C)(C)C)nn1 (single isomer, unassigned) [Example 150] |  | 10 to 1000
CC(NC(=O)c1cn(C(C)(C)C)nn1)C1CCN(c2nc(-c3cnn(C)c3)cn3nccc23)CC1 (centres unmarked) [Example 163, 1-(tert-butyl)-N-(1-(1-(6-(1-methyl-1H-pyrazol-4-yl)pyrazolo[1,5-a]pyrazin-4-yl)piperidin-4-yl)ethyl)-1H-1,2,3-triazole-4-carboxamide] |  | 10 to 1000
Cn1cc(-c2cn3nccc3c(N3CCC(CN4CCN(CC5CCC5)CC4=O)CC3)n2)cn1 [Example 169, 4-(Cyclobutylmethyl)-1-((1-(6-(1-methyl-1H-pyrazol-4-yl)pyrazolo[1,5-a]pyrazin-4-yl)piperidin-4-yl)methyl)piperazin-2-one] |  | 10 to 1000
Cn1cc(-c2cn3nccc3c(N3CC4CCC(C3)C4CNC(=O)c3noc(C(C)(C)C)n3)n2)cn1 [Example 165, 5-(tert-butyl)-N-(((1R,5S,8r)-3-(6-(1-methyl-1H-pyrazol-4-yl)pyrazolo[1,5-a]pyrazin-4-yl)-3-azabicyclo[3.2.1]octan-8-yl)methyl)-1,2,4-oxadiazole-3-carboxamide] |  | 10 to 1000
Cn1cc(-c2cn3nccc3c(N3CCC(C)(CNC(=O)c4noc(C(C)(C)C)n4)C3)n2)cn1 (centres unmarked) [Example 42, 5-(tert-butyl)-N-((3-methyl-1-(6-(1-methyl-1H-pyrazol-4-yl)pyrazolo[1,5-a]pyrazin-4-yl)pyrrolidin-3-yl)methyl)-1,2,4-oxadiazole-3-carboxamide] |  | 1000 to 10000
Cn1cc(-c2cn3nccc3c(N3CCCC(CNC(=O)c4cn(C(C)(C)C)nn4)CC3)n2)cn1 (centres unmarked) [Example 167, 1-(tert-butyl)-N-((1-(6-(1-methyl-1H-pyrazol-4-yl)pyrazolo[1,5-a]pyrazin-4-yl)azepan-4-yl)methyl)-1H-1,2,3-triazole-4-carboxamide] |  | 10 to 1000
Cc1cc(-c2nc(-c3cnn(C)c3)cn3nccc23)ccc1CN1CCN(C2COC2)C(C)C1=O (centres unmarked) [Example 37, 3-methyl-1-(2-methyl-4-(6-(1-methyl-1H-pyrazol-4-yl)pyrazolo[1,5-a]pyrazin-4-yl)benzyl)-4-(oxetan-3-yl)piperazin-2-one] |  | 10 to 1000
CN(C)c1cn2nccc2c(-c2ccc(CNC(=O)c3noc(C(C)(C)C)n3)cc2)n1 [Example 135, 5-(tert-butyl)-N-(4-(6-(dimethylamino)pyrazolo[1,5-a]pyrazin-4-yl)benzyl)-1,2,4-oxadiazole-3-carboxamide] |  | 10 to 1000
Cn1cc(-c2cn3nccc3c(N3C[C@H]4CC[C@@H](C3)[C@H]4CNC(=O)c3noc(C(C)(C)C)n3)n2)cn1 [Example 164, 5-(tert-butyl)-N-(((1R,5S,8s)-3-(6-(1-methyl-1H-pyrazol-4-yl)pyrazolo[1,5-a]pyrazin-4-yl)-3-azabicyclo[3.2.1]octan-8-yl)methyl)-1,2,4-oxadiazole-3-carboxamide] |  | 10 to 1000
Cc1cc(-c2nc(N3CCOCC3)cn3nccc23)ccc1CNC(=O)c1cnn(C(C)(C)C)n1 [Example 123, 2-(tert-butyl)-N-(2-methyl-4-(6-morpholinopyrazolo[1,5-a]pyrazin-4-yl)benzyl)-2H-1,2,3-triazole-4-carboxamide] |  | 10 to 1000
Cn1cc(-c2cn3nccc3c(N3CCC4(CC(NC(=O)c5noc(C(C)(C)C)n5)C4)C3)n2)cn1 (single isomer, unassigned) [Example 54, 5-(tert-butyl)-N-((2s,4r)-6-(6-(1-methyl-1H-pyrazol-4-yl)pyrazolo[1,5-a]pyrazin-4-yl)-6-azaspiro[3.4]octan-2-yl)-1,2,4-oxadiazole-3-carboxamide] |  | 1000 to 10000
CN1CCN(CC2CCN(c3nc(-c4cnn(C)c4)cn4nccc34)CC2)C(=O)C1 [Example 171, 4-methyl-1-((1-(6-(1-methyl-1H-pyrazol-4-yl)pyrazolo[1,5-a]pyrazin-4-yl)piperidin-4-yl)methyl)piperazin-2-one] |  | 1000 to 10000
Cn1cc(-c2cn3nccc3c(N3CCC(C)(CNC(=O)c4cnc(C(C)(C)C)o4)C3)n2)cn1 (centres unmarked) [Example 50, 2-(tert-butyl)-N-((3-methyl-1-(6-(1-methyl-1H-pyrazol-4-yl)pyrazolo[1,5-a]pyrazin-4-yl)pyrrolidin-3-yl)methyl)oxazole-5-carboxamide] |  | 1000 to 10000
CCCN1CCN(CC2CCN(c3nc(-c4cnn(C)c4)cn4nccc34)CC2)C(=O)C1 [Example 170, 1-((1-(6-(1-methyl-1H-pyrazol-4-yl)pyrazolo[1,5-a]pyrazin-4-yl)piperidin-4-yl)methyl)-4-propylpiperazin-2-one hydrochloride] |  | 1000 to 10000
CC(C)(C)n1cc(C(=O)NCc2ccc(-c3nc(N4CCOCC4)cn4nccc34)cc2)cn1 [Example 27, 1-(tert-butyl)-N-(4-(6-morpholinopyrazolo[1,5-a]pyrazin-4-yl)benzyl)-1H-pyrazole-4-carboxamide] |  | 1000 to 10000
C[C@@H]1C[C@H](CNC(=O)c2cn(C(C)(C)C)nn2)CCN1c1nc(-c2cnn(C)c2)cn2nccc12 (single isomer, unassigned) [Example 141] |  | 10 to 1000
Cn1cc(-c2cn3nccc3c(N3CCC4(CC(NC(=O)c5noc(C(C)(C)C)n5)C4)C3)n2)cn1 (single isomer, unassigned) [Example 53, 5-(tert-butyl)-N-((2r,4s)-6-(6-(1-methyl-1H-pyrazol-4-yl)pyrazolo[1,5-a]pyrazin-4-yl)-6-azaspiro[3.4]octan-2-yl)-1,2,4-oxadiazole-3-carboxamide] |  | 10 to 1000
Cn1cc(-c2cn3nccc3c(N3CC[C@H](CNC(=O)c4noc(C(C)(C)C)n4)C(F)(F)C3)n2)cn1 (single isomer, unassigned) [Example 159] |  | 10 to 1000
CC(C)(C)c1nnc(C(=O)NCc2ccc(-c3nc(N4CCOCC4)cn4nccc34)cc2)o1 [Example 29, 5-(tert-butyl)-N-(4-(6-morpholinopyrazolo[1,5-a]pyrazin-4-yl)benzyl)-1,3,4-oxadiazole-2-carboxamide] |  | 1000 to 10000
